This is an account of results in ChEMBL document CHEMBL3868631, “Discovery of SOAT2 inhibitors from synthetic small molecules” (Bioorg Med Chem Lett, 2016).

A short description of data set [1]: Cytotoxicity against CHO cells expressing African green monkey SOAT2 assessed as change in cell shape at 10 ug/ml. It is filed as toxicity, cell-based, Cricetulus griseus. Conditions: chinese hamster.
Data set [2] is described as follows: Cytotoxicity against CHO cells expressing African green monkey SOAT1 assessed as change in cell shape at 10 ug/ml. It is filed as toxicity, cell-based, Cricetulus griseus. Conditions: chinese hamster.
Data set [3] concerns the target T1, SOAT1 (sterol O-acyltransferase 1) (Chlorocebus aethiops, UniProt O77760).
T1 sequence (O77760 whole entry): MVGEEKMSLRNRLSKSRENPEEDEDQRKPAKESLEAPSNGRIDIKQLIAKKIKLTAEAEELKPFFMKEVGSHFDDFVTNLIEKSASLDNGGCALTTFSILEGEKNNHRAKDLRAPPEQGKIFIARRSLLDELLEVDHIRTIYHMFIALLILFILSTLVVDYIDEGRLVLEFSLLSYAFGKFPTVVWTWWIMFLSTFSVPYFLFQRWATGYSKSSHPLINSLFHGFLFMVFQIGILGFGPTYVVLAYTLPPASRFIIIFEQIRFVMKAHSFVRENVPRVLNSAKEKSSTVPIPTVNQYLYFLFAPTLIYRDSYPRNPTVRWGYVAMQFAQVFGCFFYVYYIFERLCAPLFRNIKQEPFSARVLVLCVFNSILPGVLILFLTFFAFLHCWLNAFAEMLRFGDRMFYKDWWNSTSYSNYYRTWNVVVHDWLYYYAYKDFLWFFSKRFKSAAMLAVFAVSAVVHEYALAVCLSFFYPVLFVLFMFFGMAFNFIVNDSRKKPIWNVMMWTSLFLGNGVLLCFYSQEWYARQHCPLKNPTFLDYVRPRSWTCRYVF
Put plainly: Inhibition of African green monkey SOAT1 expressed in CHO cells assessed as reduction in [14C]cholesteryl ester formation from [1-14C]oleic acid at 10 ug/ml measured after 6 hrs relative to control. Type of data set: ADME, cell-based. Conditions: CHO cells expressing African green monkey SOAT1, probe [1-14C]oleic acid.

Data set [4] addresses T2, Sterol O-acyltransferase 2 (Chlorocebus aethiops, UniProt O77759).
T2 sequence (O77759 whole entry): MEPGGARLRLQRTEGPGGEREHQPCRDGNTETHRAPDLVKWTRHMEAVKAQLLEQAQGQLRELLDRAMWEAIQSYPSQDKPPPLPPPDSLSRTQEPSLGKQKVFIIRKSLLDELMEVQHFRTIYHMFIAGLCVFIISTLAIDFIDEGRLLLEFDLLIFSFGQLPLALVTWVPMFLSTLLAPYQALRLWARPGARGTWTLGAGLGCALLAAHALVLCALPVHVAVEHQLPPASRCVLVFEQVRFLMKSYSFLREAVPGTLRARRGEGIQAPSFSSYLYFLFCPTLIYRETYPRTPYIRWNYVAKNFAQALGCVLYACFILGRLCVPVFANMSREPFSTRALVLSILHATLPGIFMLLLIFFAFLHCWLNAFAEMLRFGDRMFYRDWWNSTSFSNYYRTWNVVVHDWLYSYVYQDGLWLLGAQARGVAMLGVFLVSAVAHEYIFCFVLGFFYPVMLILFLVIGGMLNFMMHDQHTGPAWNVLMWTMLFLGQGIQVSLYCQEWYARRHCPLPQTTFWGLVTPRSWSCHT
Description: Inhibition of African green monkey SOAT2 expressed in CHO cells assessed as reduction in [14C]cholesteryl ester formation from [1-14C]oleic acid measured after 6 hrs. Type of data set: cell-based.

For data set [5], the target named is T3, Sterol O-acyltransferase 1 (Chlorocebus aethiops, UniProt O77760).
T3 sequence (O77760 whole entry): T1 sequence (O77760 whole entry)
Description: Inhibition of African green monkey SOAT1 expressed in CHO cells assessed as reduction in [14C]cholesteryl ester formation from [1-14C]oleic acid measured after 6 hrs. Type of data set: ADME, cell-based.

The nature of data set [6]: Selectivity index, ratio of IC50 for African green monkey SOAT1 expressed in CHO cells to IC50 for African green monkey SOAT2 expressed in CHO cells. Set-up: species or system Chlorocebus aethiops.
Data set [7] has as its target T4, Sterol O-acyltransferase 2 (Chlorocebus aethiops) (UniProt O77759).
T4 sequence (whole entry): T2 sequence (O77759 whole entry)
Put plainly: Inhibition of African green monkey SOAT2 expressed in CHO cells assessed as reduction in [14C]cholesteryl ester formation from [1-14C]oleic acid at 10 ug/ml measured after 6 hrs relative to control. It is filed as cell-based.

Each structure is given as a SMILES string.

For `O=C1C[C@@H](CCCCl)O[C@]2(C1)C(=O)Nc1cccc(Br)c12`, the Activity entry in data set [1] and in data set [2] was “Non-Toxic” throughout.
With `CCC[C@@H]1CC(=O)C[C@@]2(O1)C(=O)Nc1cc(Cl)ccc12` (racemic), the Activity entry in data set [1] and in data set [2] was “Non-Toxic” in each case.
The inhibition is the percentage by which the read-out fell short of the control. As a reminder, the IC50 is the concentration that inhibits the measured activity by half. Turning to `CCC[C@@H]1C[C@@H](NCc2ccccc2)C[C@@]2(O1)C(=O)Nc1ccccc12` (racemic), the Activity entry in data set [1] and in data set [2] was “Non-Toxic” each time. The inhibition at 6 h, 10 ug/ml in data set [3] was more than 50%. The IC50 in data set [4] was 6.8 µM; in data set [5], more than 28 µM. For the same compound, in data set [6], the “Ratio IC50” value is recorded as more than 4.1. Besides, the inhibition in data set [7] is more than 50%.
For the compound `CCC[C@@H]1C[C@@H](NCc2ccccc2)C[C@@]2(O1)C(=O)N(C)c1ccccc12` (racemic), in data set [3], the inhibition at 6 h, 10 ug/ml was more than 50%. In addition, the IC50 in data set [4] and in data set [5] was more than 27 µM throughout. For the same compound, the inhibition in data set [7] is more than 50%.
Take `CCC[C@@H]1C[C@@H](NCc2ccccc2)C[C@@]2(O1)C(=O)N(C)c1cccc(Br)c12` (racemic): the inhibition at 6 h, 10 ug/ml in data set [3] was more than 50%. In addition, the IC50 in data set [4] is more than 33 µM; in data set [5] it was more than 22 µM. Also, the inhibition in data set [7] was more than 50%.
As for `CCC[C@@H]1CC(=O)C[C@@]2(O1)C(=O)Nc1ccccc12` (racemic), the Activity result in data set [2] was “Non-Toxic”.
For the compound `CCC/C=C/C(=O)CC1(O)C(=O)Nc2ccccc21` (racemic), the Activity entry in data set [1] and in data set [2] was “Toxic” each time.
Regarding `C=CC[C@@]1(O)C[C@@H](CCC)O[C@]2(C1)C(=O)Nc1ccccc12`, the Activity entry in data set [1] and in data set [2] was “Non-Toxic” each time.
Take `CCC[C@@H]1C/C(=N/O)C[C@@]2(O1)C(=O)Nc1ccccc12` (racemic): the Activity entry in data set [1] and in data set [2] was “Non-Toxic” in each case. Also, the inhibition at 6 h, 10 ug/ml in data set [3] was more than 50%. For the same compound, the inhibition in data set [7] was more than 50%.
For `O=C1CC(c2ccccc2)O[C@]2(C1)C(=O)Nc1cccc(Br)c12` (mixture of isomers), the Activity entry in data set [1] and in data set [2] was “Non-Toxic” in each case. For the same compound, the inhibition at 6 h, 10 ug/ml in data set [3] was more than 50%. Besides, in data set [7], the inhibition is more than 50%.
As for `CCC[C@@H]1CC(=O)C[C@@]2(O1)C(=O)N(C)c1cccc(Br)c12`, the Activity result in data set [1] and in data set [2] was “Non-Toxic” in each case. The inhibition at 6 h, 10 ug/ml in data set [3] is more than 50%. Also, the IC50 in data set [4] is 9.3 µM; in data set [5] it was more than 28 µM. In data set [6], the “Ratio IC50” value is recorded as more than 3. In addition, in data set [7], the inhibition is more than 50%.
For `CCC[C@@H]1C[C@@H](N2CCCC2)C[C@@]2(O1)C(=O)Nc1ccccc12` (racemic), the inhibition at 6 h, 10 ug/ml in data set [3] was more than 50%. Besides, the IC50 in data set [4] is 26 µM; in data set [5], more than 31 µM. For the same compound, the “Ratio IC50” value in data set [6] is reported as more than 1.2. Besides, the inhibition in data set [7] was more than 50%.
Consider `CCC[C@@H]1CC(=NOCc2ccccc2)C[C@@]2(O1)C(=O)Nc1ccccc12` (racemic), for which the inhibition at 6 h, 10 ug/ml in data set [3] was more than 50%. Besides, the IC50 in data set [4] was found to be 3 µM; in data set [5], 8.9 µM. Further, the “Ratio IC50” value in data set [6] is reported as 3. Also, the inhibition in data set [7] was more than 50%.
On to `CCC[C@@H]1CC(=O)C[C@@]2(O1)C(=O)Nc1cccc(Br)c12`, for which the Activity result in data set [1] and in data set [2] was “Non-Toxic” each time.
As for `CCC[C@@H]1C/C(=N/OCc2ccccc2)C[C@@]2(O1)C(=O)Nc1ccccc12`, in data set [3], the inhibition at 6 h, 10 ug/ml is more than 50%. In addition, the figures for the IC50 in data set [4] and in data set [5] were 1.5 µM and 16 µM, respectively. The “Ratio IC50” value in data set [6] is on record as 10 - 11. In addition, the inhibition in data set [7] was more than 50%.
As to `CCC[C@@H]1CC(=O)C[C@@]2(O1)C(=O)Nc1ccc(Br)cc12` (racemic), the Activity entry in data set [1] and in data set [2] was “Non-Toxic” in each case.
Regarding `CCC/C=C/C(=O)CC1(O)C(=O)Nc2cccc(Br)c21` (racemic), the Activity result in data set [1] and in data set [2] was “Toxic” each time. Further, in data set [3], the inhibition at 6 h, 10 ug/ml is more than 50%. In data set [7], the inhibition was more than 50%.
For the compound `CCC[C@@H]1C[C@@H](O)C[C@@]2(O1)C(=O)Nc1ccccc12`, the Activity result in data set [1] and in data set [2] was “Non-Toxic” throughout.
Turning to `CCC[C@@H]1CC(=O)C[C@@]2(O1)C(=O)Nc1ccc(C)cc12`, the Activity result in data set [1] and in data set [2] was “Non-Toxic” in each case.
With `CCC[C@@H]1C[C@@H](NCc2ccccc2)C[C@@]2(O1)C(=O)Nc1cccc(Br)c12` (racemic), in data set [3], the inhibition at 6 h, 10 ug/ml is more than 50%. Moreover, the IC50 was 12 µM in data set [4] and more than 23 µM in data set [5]. Besides, the “Ratio IC50” value in data set [6] was more than 1.9. Also, in data set [7], the inhibition is more than 50%.
For the compound `CCC[C@@H]1C[C@@H](NCc2ccccc2)C[C@@]2(O1)C(=O)N(Cc1ccccc1)c1ccccc12` (racemic), the inhibition at 6 h, 10 ug/ml in data set [3] is more than 50%. Further, the IC50 in data set [4] stood at 9.1 µM; in data set [5], 11 µM. Further, the “Ratio IC50” value in data set [6] amounted to 1.2. For the same compound, the inhibition in data set [7] is more than 50%.
As for `CCC[C@@H]1CC(=O)C[C@@]2(O1)C(=O)Nc1ccccc12`, the Activity result in data set [1] is “Non-Toxic”.
Take `CCC[C@@H]1CC(=O)C[C@@]2(O1)C(=O)Nc1cccc(Cl)c12`: the Activity entry in data set [1] and in data set [2] was “Non-Toxic” each time.
For the compound `CCC[C@H]1C/C(=N/OCc2ccccc2)C[C@]2(O1)C(=O)Nc1ccccc12`, in data set [3], the inhibition at 6 h, 10 ug/ml was more than 50%. Moreover, the IC50 was found to be 16 µM in data set [4] and 14 µM in data set [5]. In addition, the “Ratio IC50” value in data set [6] is 0.88. Besides, the inhibition in data set [7] is more than 50%.
